Results published in US20020028836A1, “Potassium channel openers” (priority 2000, published 2002).
Where two headings read alike, the source gives them in different places.

How the values were obtained:
[1] = system: primary cultured guinea-pig urinary bladder (GPB) cells; assay: Membrane hyperpolarization (MHP) assay, DiBAC(4)3 / FLIPR; format: cell-based; settings: for EC50: concentration that elicits 50% of the maximal response for the test sample; for Emax / Maximal Response (% P1075): maximal steady-state hyperpolarization, normalized to response with 10 μM P1075 (100%)
Method: Compounds were evaluated for potassium channel opening activity using primary cultured guinea-pig urinary bladder (GPB) cells.
For the preparation of urinary bladder smooth muscle cells, urinary bladders were removed from male guinea-pigs (Hartley, Charles River, Wilmington, Mass.) weighing 300-400 g and placed in ice-cold Ca^2+-free Krebs solution (Composition, mM: KCl, 2.7; KH2PO4, 1.5; NaCl, 75; Na2HPO4, 9.6; Na2HPO4.7H2O, 8; MgSO4, 2; glucose, 5; HEPES, 10; pH 7.4). Cells were isolated by enzymatic dissociation as previously described with minor modifications (Klockner, U. and Isenberg, G., Pflugers Arch. (1985), 405, 329-339), hereby incorporated by reference. The bladder was cut into small sections and incubated in 5 mL of the Kreb's solution containing I mg/mL collagenase (Sigma, St. Louis, Mo.) and 0.2 mg/mL pronase (Calbiochem, La Jolla, Calif.) with continuous stirring in a cell incubator for 30 minutes. The mixture was then centrifuged at 1300×g for 5 minutes, and the pellet resuspended in Dulbecco's PBS (GIBCO, Gaithersburg, Md.) and recentrifuged to remove residual enzyme. The cell pellet was resuspended in 5 mL growth media (composition: Dulbecco's modified Eagle's medium supplemented with 10% fetal bovine serum, 100 units/mL penicillin, 100 units/mL streptomycin and […] amphotericin B) and further dissociated by pipetting the suspension through a flame-polished Pasteur pipette and passing it through a polypropylene mesh membrane (Spectrum, Houston, Tex.). The cell density was adjusted to 100,000 cells/mL by resuspension in growth media. Cells were plated in clear-bottomed black 96-well plates (Packard) for membrane potential studies at a density of 20,000 cells/well and maintained in a cell incubator with 90% air: 10% CO2 until confluent. Cells were confirmed to be of smooth muscle type by cytoskeletal staining using a monoclonal mouse anti human-α-smooth muscle actin (Biomeda, Foster City, Calif.).
Functional activity at potassium channels was measured by evaluating changes in membrane potential using the bis-oxonol dye DiBAC(4) (Molecular Probes) in a 96-well cell-based kinetic assay system, Fluorescent Imaging Plate Reader (FLIPR) (K. S. Schroeder et al., J. Biomed. Screen., v. 1 pp. 75-81 (1996)), hereby incorporated by reference. DiBAC(4)3 is an anionic potentiometric probe which partitions between cells and extracellular solution in a membrane potential-dependent manner. With increasing membrane potential (for example, K^+ depolarization), the probe further partitions into the cell; this is measured as an increase in fluorescence due to dye interaction with intracellular lipids and proteins. Conversely, decreasing membrane potential (hyperpolarization by potassium channel openers) evokes a decrease in fluorescence.
Confluent guinea-pig urinary bladder cells cultured in black clear-bottomed 96-well plates were rinsed twice with […] assay buffer (composition, mM: HEPES, 20; NaCl, 120; KCl, 2; CaCl2, 2; MgCl2, 1; glucose, 5; pH 7.4 at 25° C.) containing 5 μM DiBAC(4)3 and incubated with […] of the buffer in a cell incubator for 30 minutes at 37° C. to ensure dye distribution across the membrane. After recording the baseline fluorescence for 5 minutes, the reference or test compounds, prepared at 10 times the concentration in the assay buffer, were added directly to the wells. Changes in fluorescence were monitored for an additional 25 minutes. Hyperpolarization responses were corrected for any background noise and were normalized to the response observed with 10 μM of the reference compound P1075 (assigned as 100%), a potent opener of smooth muscle KATP channels (Quast et al., Mol. Pharmacol., v. 43 pp. 474-481 (1993)), hereby incorporated by reference.
Routinely, five concentrations of P1075 or test compounds (log or half-log dilutions) were evaluated and the maximal steady-state hyperpolarization values (expressed as % relative to P1075) plotted as a function of concentration. […]

[2] = system: tissue strips obtained from Landrace pig bladders; assay: Functional potassium channel opening activity in isolated bladder strips (field-stimulated twitch); settings: for Index: ED50 for P1075 divided by ED50 for the test agonist in a given tissue, averaged; for EC50: amount of agent necessary to cause 50% of the agent's maximal response, read-out: ED50 (the source's name); for Emax / Efficacy (% P1075): maximal efficacy relative to P1075, field stimulation 0.05 Hz, 0.5 ms, 20 volts
Method: Compounds were evaluated for functional potassium channel opening activity using tissue strips obtained from Landrace pig bladders.
Landrace pig bladders were obtained from female Landrace pigs of 9-30 kg. Landrace pigs were euthanized with an intraperitoneal injection of pentobarbital solution, Somlethal®, J. A. Webster Inc., Sterling, Mass. The entire bladder was removed and immediately placed into Krebs Ringer bicarbonate solution (composition, mM: NaCl, 120; NaHCO3, 20; dextrose, 11; KCl, 4.7; CaCl2, 2.5; MgSO4, 1.5; KH2PO4, 1.2; K2EDTA, 0.01, equilibrated with 5% CO2/95% O2pH 7.4 at 37° C.). Propranolol (0.004 mM) was included in all of the assays to block β-adrenoceptors. The trigonal and dome portions were discarded. Strips 3-5 mm wide and 20 mm long were prepared from the remaining tissue cut in a circular fashion. The mucosal layer was removed. One end was fixed to a stationary glass rod and the other to a Grass FT03 transducer at a basal preload of 1.0 gram. Two parallel platinum electrodes were included in the stationary glass rod to provide field stimulation of 0.05 Hz, 0.5 milli-seconds at 20 volts. This low frequency stimulation produced a stable twitch response of 100-500 centigrams. Tissues were allowed to equilibrate for at least 60 minutes and primed with 80 mM KCl. A control concentration response curve (cumulative) was generated for each tissue using the potassium channel opener P1075 as the control agonist. […] After a 60 minute rinsing period, a concentration response curve (cumulative) was generated for the test agonist in the same fashion as that used for the control agonist P1075. The maximal efficacy of each compound (expressed as % relative to P1075) is reported. The amount of agent necessary to cause 50% of the agent's maximal response (ED50) was calculated using “ALLFIT” (DeLean et al., Am. J. Physiol., 235, E97 (1980)), hereby incorporated by reference. Agonist potencies were also expressed as an index relative to P1075. The index was calculated by dividing the ED50 for P1075 by the ED50 for the test agonist in a given tissue. Each tissue was used for only one test agonist, and the indices obtained from each tissue were averaged to provide an average index of potency.

Structure (SMILES)	EC50 ([1]; Cavia porcellus) [nM]	EC50 ([2]; Sus scrofa) [nM]	EC50 [1] [nM]	EC50 [2] [nM]	Emax ([1]; Cavia porcellus) [%]	Index [2]	Emax ([2]; Sus scrofa) [%]	Maximal Response (% P1075) [1] [% P1075]	Efficacy (% P1075) [2] [% P1075]
Cc1ccc(C(=O)NC(NC(=S)Nc2ccc(F)cc2)C(F)(F)F)cc1 (stereo not shown) [Example 3, 4-methyl-N-(2,2,2-trifluoro-1-{[(4-fluoroanilino)carbothioyl]amino}ethyl)benzamide]	890	9000	–	–	79	0.012	97	–	–
O=C(CCc1ccccc1)NC(NC(=S)Nc1cccc([N+](=O)[O-])c1)C(Cl)(Cl)Cl (stereo not shown) [Example 149, 3-phenyl-N-(2,2,2-trichloro-1-{[(3-nitroanilino)carbothioyl]amino}ethyl)propanamide]	84	2400	–	–	129	0.076	95	–	–
Cc1ccc(C(=O)NC(NC(=S)Nc2cccnc2)C(F)(F)F)cc1 (stereo not shown) [Example 1, 4-methyl-N-(2,2,2-trifluoro-1-{[(3-pyridinylamino)carbothioyl]amino}ethyl)benzamide]	70	9000	–	–	116	0.009	100	–	–
O=C(NC(NC(=S)Nc1ccccc1)C(F)(F)F)c1ccc(Cl)cc1 (stereo not shown) [Example 20, N-{1-[(anilinocarbothioyl)amino]-2,2,2-trifluoroethyl}-4-chlorobenzamide]	90	28000	–	–	85	0.011	84	–	–
Cc1ccc(C(=O)NC(NC(=S)Nc2cccc([N+](=O)[O-])c2)C(F)(F)F)cc1 (stereo not shown) [Example 4, 4-methyl-N-(2,2,2-trifluoro-1-{[(3-nitroanilino)carbothioyl]amino}ethyl)benzamide]	300	18000	–	–	133	0.015	89	–	–
Cc1ccc(C(=O)NC(NC(=S)Nc2c(F)cccc2F)C(F)(F)F)cc1 (stereo not shown) [Example 17, N-(1-{[(2,6-difluoroanilino)carbothioyl]amino}-2,2,2-trifluoroethyl)-4-methylbenzamide]	90	12000	–	–	109	0.006	100	–	–
Cc1ccc(C(=O)NC(NC(=NC#N)Nc2cccnc2)C(C)(C)C)cc1 (single isomer, unassigned; (+)) [Example 58, (+) N-(1-{[(cyanoimino)(3-pyridinylamino)methyl]amino}-2,2-dimethylpropyl)-4-methylbenzamide]	–	–	650	12000	–	0.008	–	87	59
CC1=C(CC(NC(=O)c2ccc(Cl)cc2)NC(=NC#N)Nc2cccnc2)C(C)(C)CCC1 (single isomer, unassigned; (-)) [Example 89, (−) 4-chloro-N-[1-{[(cyanoimino)(3-pyridinylamino)methyl]amino}-2-(2,6,6-trimethyl-1-cyclohexen-1-yl)ethyl]benzamide]	–	–	100	3400	–	0.120	–	88	41
CCC(CC)(CCC#N)C(NC(=O)c1ccc(Cl)cc1)NC(=NC#N)Nc1cccnc1 (single isomer, unassigned; (-)) [Example 86, (−) 4-chloro-N-(4-cyano-1-{[(cyanoimino)(3-pyridinylamino)methyl]amino}-2,2-diethylbutyl)benzamide]	–	–	86	30000	–	0.01	–	83	19
Cc1ccc(C(=O)NC(NC(=S)Nc2cccnc2)C(C)(C)C)cc1 (stereo not shown) [Example 22, N-(2,2-dimethyl-1-{[(3-pyridinylamino)carbothioyl]amino}propyl)-4-methylbenzamide]	220	5000	–	–	100	0.017	100	–	–

The next lines start with results.

EC50 ([1]; Cavia porcellus) [nM]	EC50 ([2]; Sus scrofa) [nM]	EC50 [1] [nM]	EC50 [2] [nM]	Structure (SMILES)	Emax ([1]; Cavia porcellus) [%]	Index [2]	Emax ([2]; Sus scrofa) [%]	Maximal Response (% P1075) [1] [% P1075]	Efficacy (% P1075) [2] [% P1075]
510	19000	–	–	Cc1ccc(C(=O)NC(NC(=S)Nc2ccccc2F)C(F)(F)F)cc1 (stereo not shown) [Example 11, 4-methyl-N-(2,2,2-trifluoro-1-{[(2-fluoroanilino)carbothioyl]amino}ethyl)benzamide]	109	0.011	100	–	–
100	25000	–	–	CC(C)(C)C(NC(=O)c1ccc(Cl)cc1)NC(=S)Nc1cccnc1 (stereo not shown) [Example 27, 4-chloro-N-(2,2-dimethyl-1-{[(3-pyridinylamino)carbothioyl]amino}propyl)benzamide]	80	0.009	94	–	–
–	–	220	10000	CC1=C(CC(NC(=O)c2ccc(Cl)cc2)NC(=NC#N)Nc2cccnc2)C(C)(C)CCC1 (single isomer, unassigned; (+)) [Example 88, (+) 4-chloro-N-[1-{[(cyanoimino)(3-pyridinylamino)methyl]amino}-2-(2,6,6-trimethyl-1-cyclohexen-1-yl)ethyl]benzamide]	–	0.074	36	87	–
96	1100	–	–	O=C(NC(NC(=S)Nc1cccnc1)C(Cl)(Cl)Cl)c1ccc(I)cc1 (stereo not shown) [Example 148, 4-iodo-N-(2,2,2-trichloro-1-{[(3-pyridinylamino)carbothioyl]amino}ethyl)benzamide]	61	0.082	78	–	–
